Literature values, collected in patent US8288413B2, “Benzimidazolones which have activity at M1 receptor” (Glaxo Group Limited, priority 2005, dated 2012).

What was measured:
[1] = system: unilateral 6-OH-DA lesioned rats
[2] = in vivo
c-fos expression = conditions: rats

For CCCCCCOc1nsnc1C1=CCCN(C)C1 [xanomeline], the amphetamine induced locomotion (rats) is given as “reverses”, the apomorphine induced climbing (mice) is given as “reverses” and the “dopamine agonist driven turning” value [1] is given as “reverses”. For the same compound, the EPS liability (monkeys) was “without EPS liability”, the amphetamine-induced motor unrest (monkeys) was “reverses” and the “A9 dopamine cell firing” value (dopamine cell firing; A9) was “not A9”. For the same compound, the “A10 dopamine cell firing” value (dopamine cell firing; A10) was “inhibit”, the conditioned avoidance [2] was “inhibit” and the “c-fos expression in prefrontal cortex and nucleus accumbens” value (c-fos expression) was “induces”. For the same compound, the “c-fos expression in striatum” value (c-fos expression) was “not in striatum”, the “psychotic symptoms such as suspiciousness, hallucinations and delusions” value (Alzheimer's patients; Alzheimer's patients) was “reduce” and the side effects (Alzheimer's patients; clinical use) was “dose-limiting peripheral cholinergic side effects”.
